US6329392A, “Substituted piperidines useful for the treatment of allergic diseases” (Aventis Pharmaceuticals, Inc., priority 1998, dated 2001)
Like-named read-outs stand apart in the source and are kept apart here.

Key:
[1] = molecular target: T1, NK1 receptor (Cavia porcellus, UniProt P30547); assay: Antagonism of iodinated tachykinin (substance P) binding to NK1 receptors in guinea pig lungs; details: read-out: NK1 Receptor Binding Affinity, IC50
T1 construct: as evaluated in guinea pig lungs (Keystone Biologicals, Cleveland, Ohio); tissue Keystone Biologicals, Cleveland, Ohio; host or cells: guinea pig lung membranes
T1 sequence (P30547 whole entry): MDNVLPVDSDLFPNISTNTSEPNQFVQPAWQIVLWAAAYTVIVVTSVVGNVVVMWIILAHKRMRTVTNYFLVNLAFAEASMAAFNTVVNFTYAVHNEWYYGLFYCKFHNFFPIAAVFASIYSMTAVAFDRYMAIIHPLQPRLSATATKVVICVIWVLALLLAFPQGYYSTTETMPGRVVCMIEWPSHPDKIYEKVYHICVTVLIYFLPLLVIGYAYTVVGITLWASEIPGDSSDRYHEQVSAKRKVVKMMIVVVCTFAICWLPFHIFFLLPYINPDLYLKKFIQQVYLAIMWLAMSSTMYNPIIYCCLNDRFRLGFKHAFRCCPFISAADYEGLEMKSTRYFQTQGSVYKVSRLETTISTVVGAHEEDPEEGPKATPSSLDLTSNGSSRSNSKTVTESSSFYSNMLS
Method: Antagonism of iodinated tachykinin binding to NK1 receptors by putative antagonists
One skilled in the art can measure the NK1 receptor affinity of proposed tachykinin antagonists as evaluated in guinea pig lungs (Keystone Biologicals, Cleveland, Ohio). Tissues or cells are homogenized with a Polytron in 15 volumes of 50 mM Tris-HCl buffer (pH 7.4, […]) and centrifuged. The pellet is resuspended in Tris-HCl buffer and centrifuged; the pellet is washed twice by resuspension. The final pellet is resuspended at a concentration of 40 mg/ml incubation buffer and remains at room temperature for at least 15 min prior to use. […] Incubations are performed at room temperature for 90 min; binding is terminated by addition of 50 mM Tris-HCl buffer (pH 7.4, […]) and filtration under vacuum through GF/B filters presoaked with 0.1% polyethyleneimine. Filter bound radioactivity is quantitated in a gamma counter. […] IC50 values (concentration required to inhibit 50% of receptor binding) are generated for each of the test compounds by nonlinear regression using an iterative curve fitting program (GraphPAD Inplot, San Diego, Calif.).

[2] = molecular target: T2, H1 receptor (Cavia porcellus, UniProt P31389); assay: Histamine (H1) antagonism in guinea pig ileum; format: cell-based; details: read-out: H1 Receptor Antagonism, pA2, in vitro (converted)
T2 construct: A piece of ileum, about 20 cm in length, is removed and cut into 2 cm pieces; from tissue; host or cells: ileum of male Hartley guinea pigs
T2 sequence (P31389 whole entry): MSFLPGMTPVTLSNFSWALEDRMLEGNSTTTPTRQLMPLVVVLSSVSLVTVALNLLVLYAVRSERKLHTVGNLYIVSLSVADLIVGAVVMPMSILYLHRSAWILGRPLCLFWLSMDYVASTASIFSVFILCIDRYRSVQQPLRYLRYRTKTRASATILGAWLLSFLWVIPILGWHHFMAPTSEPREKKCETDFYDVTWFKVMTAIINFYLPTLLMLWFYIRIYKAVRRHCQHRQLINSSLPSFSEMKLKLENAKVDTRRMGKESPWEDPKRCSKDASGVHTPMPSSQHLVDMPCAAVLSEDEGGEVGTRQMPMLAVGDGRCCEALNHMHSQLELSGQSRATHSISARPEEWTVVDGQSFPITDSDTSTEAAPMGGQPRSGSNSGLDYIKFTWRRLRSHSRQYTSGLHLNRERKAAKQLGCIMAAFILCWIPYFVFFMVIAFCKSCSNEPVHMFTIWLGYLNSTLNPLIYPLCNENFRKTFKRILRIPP
Method: Male Hartley guinea pigs, weighing 200-450 grams, are sacrificed by CO2 asphyxiation. A piece of ileum, about 20 cm in length, is removed and cut into 2 cm pieces. Each ileum piece is placed in an organ bath at 37° C. containing Tyrode's solution and is constantly aerated with 95% O2 /5%CO2. Tyrode's solution has the composition: NaCl 136.9 mM, KCl […], CaCl2 1.8 mM, NaH2 PO4 0.42 mM, NaHCO3 11.9 mM, and dextrose 5.55 mM. Contractions are measured with an isometric transducer (Grass FTO3C), and are recorded on a polygraph recorder and/or a computer. The ileum strips are loaded with 1.0 grams of tension and allowed to equilibrate for a minimum of 30 minutes before starting the experiments.
The potency of the antagonism is determined by the magnitude of the shift and is expressed as a pA2 value which is the negative logarithm of the molar concentration of antagonist which produces a two-fold shift of the dose response curve to the right. The pA2 value is calculated by using Schild analysis. O. Arunlakshana and H. O. Schild, Br. J. Pharmacol Chemother. 14, 48-58 (1958).
Table 1 presents pA2 values by the method of Example 93 which indicate potency of H1 receptor antagonism and IC50 values by the method of Example 95 which indicates NK1 receptor binding affinity for representative compounds of the present invention.

SMILES | IC50 [1] [nM] | Kb [2] [nM] | IC50 ([1]; guinea pig lungs, 0.1 nM 125I-Bolton Hunter Lys-3 labeled substance P, room temperature 90 min, pH 7.4) [nM]
CCOc1cc(C(=O)N2CCC(CCN3CCC(C(=O)c4nc5ccccc5n4Cc4ccc(F)cc4)CC3)(c3ccc(OC)c(OC)c3)C2)cc(OCC)c1OCC (centres unmarked) [Example 28, 1-(3,4,5-Triethoxy-benzoyl)-3-[2-[4-[1-(4-fluoro-benzyl)-1 H-benzoimidazole-2-carbonyl]-piperidin-1-yl]-ethyl]-3-(3,4-dimethoxy-phenyl)-pyrrolidine] | – | 20.4 | 1240
COc1ccc(C2(CCN3CCC(O)(c4nc5ccccc5n4Cc4ccc(F)cc4)CC3)CCN(C(=O)c3cc(OC)c(OC)c(OC)c3)C2)cc1OC (centres unmarked) [Example 5, 1-(3,4,5-Trimethoxy-benzoyl)-3-[2-[4-[1-(4-fluoro-benzyl)-1 H-benzoimidazol-2-yl]-4-hydroxy-piperidin-1-yl]-ethyl]-3-(3,4-dimethoxy-phenyl)-pyrrolidine] | 25 | 269 | –
COc1cc(CN2CCC(CCN3CCC(O)(c4nc5ccccc5n4Cc4ccc(F)cc4)CC3)(Cc3ccc(Cl)c(Cl)c3)C2=O)cc(OC)c1OC (centres unmarked) [Example 54, 1-(3,4,5-Trimethoxy-benzvl)-3-[2-[4-[1-(4-fluoro-benzyl)-1H-benzoimidazol-2-yl]-4-hydroxy-piperidin-1-yl]-ethyl]-3-(3,4-dichloro-phenylmethyl)-2-oxo-pyrrolidine] | 269 | 479 | –
COc1ccc(C(=O)N2CCC(CCN3CCC(C(=O)c4nc5ccccc5n4Cc4ccc(F)cc4)CC3)(c3ccc4c(c3)OCO4)C2)c(OC)c1OC (centres unmarked) [Example 27, 1-(2,3,4-Trimethoxy-benzoyl)-3-[2-[4-[1-(4-fluoro-benzyl)-1 H-benzoimidazole-2-carbonyl]-piperidin-1-yl]-ethyl]-3-(benzo[1,3]dioxol-5-yl)-pyrrolidine] | 370 | 20.9 | –
COc1ccc(C2(CCN3CCC(c4nc5ccccc5s4)CC3)CCN(C(=O)c3ccccc3)C2)cc1OC (centres unmarked) [Example 4, 1-Benzoyl-3-[2-[4-(benzothiazol-2-yl)-piperidin-1-yl]-ethyl]-3-(3,4-dimethoxy-phenyl)-pyrrolidine] | 2590 | 158 | –
CC(C)Oc1cccc(CC(=O)N2CCCC(CCN3CCC(C(=O)c4nc5ccccc5n4Cc4ccc(F)cc4)CC3)(c3ccc(Cl)c(Cl)c3)C2)c1 (centres unmarked) [Example 63, 1-(3-Isopropoxy-phenyl-acetyl)-3-[2-[4-[1-(4-fluoro-benzyl)-1H-benzoimidazole-2-carbonyl]-piperidin-1-yl]-ethyl]-3-(3,4-dichloro-phenyl)-piperidine] | 279 | 79.4 | –
COc1cc(CN2CCC(CCN3CCC(O)(c4nc5ccccc5n4Cc4ccc(F)cc4)CC3)(Cc3ccccc3)C2=O)cc(OC)c1OC (centres unmarked) [Example 53, 1-(3,4,5-Trimethoxy-benzyl)-3-[2-[4-[1-(4-fluoro-benzyl)-1H-benzoimidazol-2-yl]-4-hydroxy-piperidin-1-yl]-ethyl]-3-(phenylmethyl)-2-oxo-pyrrolidine] | 191 | 204 | –
CC(C)Oc1cccc(CC(=O)N2CCC(CCN3CCC(C(=O)c4nc5ccccc5n4Cc4ccc(F)cc4)CC3)(c3ccc4c(c3)OCO4)C2)c1 (centres unmarked) [Example 26, 1-(3-Isopropoxy-phenyl-acetyl)-3-[2-[4-[1-(4-fluoro-benzyl)-1 H-benzoimidazole-2-carbonyl]-piperidin-1-yl]-ethyl]-3-(benzo[1,3]dioxol-5-yl)-pyrrolidine] | 288 | 61.7 | –

Next, values leading:

IC50 [1] [nM] | Kb [2] [nM] | IC50 ([1]; guinea pig lungs, 0.1 nM 125I-Bolton Hunter Lys-3 labeled substance P, room temperature 90 min, pH 7.4) [nM] | SMILES
122 | 724 | – | COc1ccc(C2(CCN3CCC(C(O)(c4ccccc4)c4ccccc4)CC3)CCN(C(=O)c3cc(OC)c(OC)c(OC)c3)C2)cc1OC (centres unmarked) [Example 9, 1-(3,4,5-Trimethoxy-benzoyl)-3-[2-[4-(hydroxy-diphenyl-methyl)-piperidin-1-yl]-ethyl]-3-(3,4-dimethoxy-phenyl)-pyrrolidine]
9 | 35.5 | – | COc1cc(C(=O)N2CCC(CCN3CCC(C(=O)c4nc5ccccc5n4CCOCc4ccco4)CC3)(c3ccccc3)C2)cc(OC)c1OC (centres unmarked) [Example 45, 1-(3,4,5-Trimethoxy-benzoyl)-3-[2-[4-[1-(2-fur-2-ylmethoxy-ethyl)-1 H-benzoimidazole-2-carbonyl]-piperidin-1-yl]-ethyl]-3-phenyl-pyrrolidine]
48 | 6760 | – | COc1ccc(C2(CCN3CCC(C(=O)c4nc5ccccc5n4Cc4ccc(C(=O)O)cc4)CC3)CCN(C(=O)c3cc(OC)c(OC)c(OC)c3)C2)cc1OC (centres unmarked) [Example 43]
17 | 25.1 | – | COc1cc(C(=O)N2CCC(CCN3CCC(C(=O)c4nc5ccccc5n4Cc4ccccn4)CC3)(c3ccccc3)C2)cc(OC)c1OC (centres unmarked) [Example 37, 1-(3,4,5-Trimethoxy-benzoyl)-3-[2-[4-[1-(pyrid-2-ylmethyl)-1 H-benzoimidazole-2-carbonyl]-piperidin-1-yl]-ethyl]-3-phenyl-pyrrolidine]
38 | 41.7 | – | COc1cc(C(=O)N2CCC(CCN3CCC(C(=O)c4nc5ccccc5n4Cc4ccccn4)CC3)(c3ccc(Cl)c(Cl)c3)C2)cc(OC)c1OC (centres unmarked) [Example 33, 1-(3,4,5-Trimethoxy-benzoyl)-3-[2-[4-[1-(pyrid-2-ylmethyl)-1 H-benzoimidazole-2-carbonyl]-piperidin-1-yl]-ethyl]-3-(3,4-dichloro-phenyl)-pyrrolidine]
